The text below walks through data of ChEMBL document CHEMBL5465560, “Selectivity Literature for EUbOPEN Chemogenomic Library” (2024).

Experiment [1] concerns the target T1, Protein arginine N-methyltransferase 9 (Homo sapiens) (UniProt Q6P2P2).
T1 sequence (whole entry): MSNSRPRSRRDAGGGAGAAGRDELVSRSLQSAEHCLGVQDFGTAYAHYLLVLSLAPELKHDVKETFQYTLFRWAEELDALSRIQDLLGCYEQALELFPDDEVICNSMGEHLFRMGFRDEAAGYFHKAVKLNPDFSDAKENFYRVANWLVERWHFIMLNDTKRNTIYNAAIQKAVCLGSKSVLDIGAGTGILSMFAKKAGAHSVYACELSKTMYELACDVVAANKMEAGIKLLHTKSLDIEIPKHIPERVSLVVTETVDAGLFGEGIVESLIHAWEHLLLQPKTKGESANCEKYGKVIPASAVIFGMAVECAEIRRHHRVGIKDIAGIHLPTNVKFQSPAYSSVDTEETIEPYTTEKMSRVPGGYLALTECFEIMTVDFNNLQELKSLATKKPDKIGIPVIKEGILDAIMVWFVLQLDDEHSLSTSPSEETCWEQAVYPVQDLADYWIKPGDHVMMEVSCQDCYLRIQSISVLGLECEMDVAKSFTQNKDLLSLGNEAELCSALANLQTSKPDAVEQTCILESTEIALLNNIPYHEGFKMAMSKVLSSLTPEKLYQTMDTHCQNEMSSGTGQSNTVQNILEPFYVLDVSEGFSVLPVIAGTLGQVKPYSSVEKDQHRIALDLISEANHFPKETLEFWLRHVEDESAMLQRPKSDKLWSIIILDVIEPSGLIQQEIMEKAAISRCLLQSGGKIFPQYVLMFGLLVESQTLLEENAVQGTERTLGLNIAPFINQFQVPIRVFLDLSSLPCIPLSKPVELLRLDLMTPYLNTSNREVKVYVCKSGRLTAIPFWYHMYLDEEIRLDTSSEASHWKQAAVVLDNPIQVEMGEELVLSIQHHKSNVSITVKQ
Put plainly: Selectivity interaction (Methyltransferase screen (Scintillation proximity assays)) EUB0000255b PRMT9.

Experiment [2] deals with Tyrosine-protein kinase Blk (Homo sapiens) (UniProt P51451). Conditions: at 10 µM.
Experiment [3] deals with T2, Mitogen-activated protein kinase kinase kinase 13 (Homo sapiens) (UniProt O43283).
T2 sequence (whole entry): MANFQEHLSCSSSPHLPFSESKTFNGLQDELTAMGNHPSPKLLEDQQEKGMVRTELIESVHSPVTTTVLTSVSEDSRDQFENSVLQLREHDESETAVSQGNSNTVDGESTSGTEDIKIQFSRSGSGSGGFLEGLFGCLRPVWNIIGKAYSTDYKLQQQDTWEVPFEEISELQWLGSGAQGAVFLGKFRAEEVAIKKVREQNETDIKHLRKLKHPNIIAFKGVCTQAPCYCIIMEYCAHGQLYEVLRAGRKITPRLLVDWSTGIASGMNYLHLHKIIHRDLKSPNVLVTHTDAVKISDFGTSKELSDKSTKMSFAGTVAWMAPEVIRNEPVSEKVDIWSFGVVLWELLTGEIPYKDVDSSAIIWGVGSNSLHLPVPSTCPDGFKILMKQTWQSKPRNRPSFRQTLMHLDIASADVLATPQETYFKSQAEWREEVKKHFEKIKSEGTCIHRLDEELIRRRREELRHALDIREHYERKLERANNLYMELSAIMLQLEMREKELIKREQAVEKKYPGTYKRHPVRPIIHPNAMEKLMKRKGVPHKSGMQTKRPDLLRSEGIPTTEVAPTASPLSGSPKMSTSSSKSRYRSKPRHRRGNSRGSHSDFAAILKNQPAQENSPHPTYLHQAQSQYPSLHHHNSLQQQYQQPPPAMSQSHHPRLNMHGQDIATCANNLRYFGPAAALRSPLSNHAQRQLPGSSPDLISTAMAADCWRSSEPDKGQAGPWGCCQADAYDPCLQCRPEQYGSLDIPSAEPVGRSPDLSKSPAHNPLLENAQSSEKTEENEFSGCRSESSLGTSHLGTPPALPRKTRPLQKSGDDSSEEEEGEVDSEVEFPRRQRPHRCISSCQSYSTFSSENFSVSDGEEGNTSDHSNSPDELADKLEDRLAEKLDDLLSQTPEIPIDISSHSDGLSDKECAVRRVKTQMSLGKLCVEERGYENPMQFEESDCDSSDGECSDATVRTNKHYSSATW
Put plainly: Selectivity interaction (KinomeScan (DiscoverX)) EUB0000695a MAP3K13. Conditions: at 100 nM.

Experiment [4] concerns the target T3, Serine/threonine-protein kinase ULK3 (Homo sapiens) (UniProt Q6PHR2).
T3 sequence (whole entry): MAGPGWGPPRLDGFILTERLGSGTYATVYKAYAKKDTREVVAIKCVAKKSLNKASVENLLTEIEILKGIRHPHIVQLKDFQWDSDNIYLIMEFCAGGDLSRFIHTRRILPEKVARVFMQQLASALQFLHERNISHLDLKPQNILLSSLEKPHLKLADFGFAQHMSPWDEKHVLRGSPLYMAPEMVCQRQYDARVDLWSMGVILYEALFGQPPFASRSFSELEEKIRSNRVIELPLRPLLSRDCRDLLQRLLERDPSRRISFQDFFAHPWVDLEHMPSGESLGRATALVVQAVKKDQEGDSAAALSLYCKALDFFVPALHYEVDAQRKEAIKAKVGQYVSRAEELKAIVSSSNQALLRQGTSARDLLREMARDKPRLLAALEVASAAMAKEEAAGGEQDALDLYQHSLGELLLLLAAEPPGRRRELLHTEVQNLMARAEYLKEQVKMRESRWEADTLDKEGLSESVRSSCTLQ
Put plainly: Selectivity interaction (ActivX KiNativ screen (kinase selectivity in THP-1 cell lysates)) EUB0000639a ULK3. The experiment is classed as subcellular. Conditions: lysate, at 0.04 µM.

The test system of experiment [5] is Epidermal growth factor receptor (Homo sapiens), P00533 [L858R,T790M]. Kind of experiment: (§1) Selectivity interaction (ProQinase) EUB0000171b EGFR.
Epidermal growth factor receptor (Homo sapiens), P00533 [L858R,T790M], sequence (P00533 whole entry T790M/L858R, looked up): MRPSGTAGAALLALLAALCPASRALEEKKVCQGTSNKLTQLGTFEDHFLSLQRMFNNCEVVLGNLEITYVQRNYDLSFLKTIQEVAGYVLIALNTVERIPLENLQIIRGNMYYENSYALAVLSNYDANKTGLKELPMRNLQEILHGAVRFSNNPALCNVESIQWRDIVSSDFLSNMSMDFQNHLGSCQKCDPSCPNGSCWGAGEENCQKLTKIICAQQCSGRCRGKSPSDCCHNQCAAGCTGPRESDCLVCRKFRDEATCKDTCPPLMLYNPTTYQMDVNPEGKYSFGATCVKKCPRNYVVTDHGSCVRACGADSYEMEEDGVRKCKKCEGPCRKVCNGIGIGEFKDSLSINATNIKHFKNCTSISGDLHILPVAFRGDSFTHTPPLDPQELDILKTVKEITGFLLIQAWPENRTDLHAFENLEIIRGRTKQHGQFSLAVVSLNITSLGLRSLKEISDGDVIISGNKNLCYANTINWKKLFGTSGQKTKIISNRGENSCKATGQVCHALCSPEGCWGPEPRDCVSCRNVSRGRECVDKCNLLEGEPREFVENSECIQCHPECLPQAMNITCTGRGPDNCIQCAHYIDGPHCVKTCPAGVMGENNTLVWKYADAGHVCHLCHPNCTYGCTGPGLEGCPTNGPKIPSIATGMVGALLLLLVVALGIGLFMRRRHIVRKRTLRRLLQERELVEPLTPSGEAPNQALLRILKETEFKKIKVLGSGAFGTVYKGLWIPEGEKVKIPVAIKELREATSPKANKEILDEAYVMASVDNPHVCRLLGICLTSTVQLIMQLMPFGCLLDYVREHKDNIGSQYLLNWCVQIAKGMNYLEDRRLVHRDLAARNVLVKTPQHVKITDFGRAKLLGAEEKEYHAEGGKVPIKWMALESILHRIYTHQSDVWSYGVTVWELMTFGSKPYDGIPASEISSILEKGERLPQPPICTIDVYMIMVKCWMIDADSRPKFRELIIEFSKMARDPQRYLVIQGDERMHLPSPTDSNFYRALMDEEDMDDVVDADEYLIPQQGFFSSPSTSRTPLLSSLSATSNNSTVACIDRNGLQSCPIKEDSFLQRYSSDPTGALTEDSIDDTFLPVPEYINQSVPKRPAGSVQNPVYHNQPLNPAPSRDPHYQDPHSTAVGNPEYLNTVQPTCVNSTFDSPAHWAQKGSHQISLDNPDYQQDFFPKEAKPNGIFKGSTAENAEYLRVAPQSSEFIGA
Experiment [6] concerns the target Epidermal growth factor receptor (Homo sapiens, UniProt P00533). The experiment is described as §1.
The test system of experiment [7] is Epidermal growth factor receptor (Homo sapiens), P00533 [G719C]. The experiment is described as §1.
Epidermal growth factor receptor (Homo sapiens), P00533 [G719C], sequence (P00533 whole entry G719C): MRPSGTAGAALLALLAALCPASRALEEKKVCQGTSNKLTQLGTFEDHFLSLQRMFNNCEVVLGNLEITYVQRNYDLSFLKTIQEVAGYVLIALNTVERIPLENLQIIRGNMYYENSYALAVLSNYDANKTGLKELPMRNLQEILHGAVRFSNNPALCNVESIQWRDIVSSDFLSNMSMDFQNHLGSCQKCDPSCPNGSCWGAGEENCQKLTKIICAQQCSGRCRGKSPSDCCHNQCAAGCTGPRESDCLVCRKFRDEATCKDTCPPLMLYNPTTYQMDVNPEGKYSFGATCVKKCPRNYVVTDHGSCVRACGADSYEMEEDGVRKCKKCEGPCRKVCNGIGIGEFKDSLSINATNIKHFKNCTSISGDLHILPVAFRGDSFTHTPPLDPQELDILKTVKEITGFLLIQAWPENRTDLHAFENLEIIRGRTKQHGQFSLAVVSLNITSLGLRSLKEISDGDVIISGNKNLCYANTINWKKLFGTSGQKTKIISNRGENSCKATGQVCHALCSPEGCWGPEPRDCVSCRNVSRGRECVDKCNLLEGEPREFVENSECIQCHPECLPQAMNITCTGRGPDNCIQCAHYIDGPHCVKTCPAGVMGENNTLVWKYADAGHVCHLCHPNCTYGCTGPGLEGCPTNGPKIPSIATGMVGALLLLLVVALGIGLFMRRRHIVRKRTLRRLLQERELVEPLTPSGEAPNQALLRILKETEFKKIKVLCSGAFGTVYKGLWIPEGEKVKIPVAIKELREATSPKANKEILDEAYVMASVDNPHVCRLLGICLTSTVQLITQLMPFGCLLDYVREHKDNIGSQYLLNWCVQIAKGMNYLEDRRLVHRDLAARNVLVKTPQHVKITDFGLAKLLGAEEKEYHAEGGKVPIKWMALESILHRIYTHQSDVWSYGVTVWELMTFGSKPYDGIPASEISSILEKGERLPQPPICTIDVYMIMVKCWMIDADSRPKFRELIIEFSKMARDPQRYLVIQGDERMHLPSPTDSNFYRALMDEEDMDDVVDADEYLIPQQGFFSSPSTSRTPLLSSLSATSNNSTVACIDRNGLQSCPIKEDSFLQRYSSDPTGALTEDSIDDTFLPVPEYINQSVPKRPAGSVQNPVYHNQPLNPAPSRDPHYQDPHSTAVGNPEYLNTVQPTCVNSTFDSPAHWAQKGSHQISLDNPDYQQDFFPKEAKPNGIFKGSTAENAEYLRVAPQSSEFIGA
Experiment [8] relates to Epidermal growth factor receptor (Homo sapiens), P00533 [G719S]. The description is as §1.
Epidermal growth factor receptor (Homo sapiens), P00533 [G719S], sequence (P00533 whole entry G719S): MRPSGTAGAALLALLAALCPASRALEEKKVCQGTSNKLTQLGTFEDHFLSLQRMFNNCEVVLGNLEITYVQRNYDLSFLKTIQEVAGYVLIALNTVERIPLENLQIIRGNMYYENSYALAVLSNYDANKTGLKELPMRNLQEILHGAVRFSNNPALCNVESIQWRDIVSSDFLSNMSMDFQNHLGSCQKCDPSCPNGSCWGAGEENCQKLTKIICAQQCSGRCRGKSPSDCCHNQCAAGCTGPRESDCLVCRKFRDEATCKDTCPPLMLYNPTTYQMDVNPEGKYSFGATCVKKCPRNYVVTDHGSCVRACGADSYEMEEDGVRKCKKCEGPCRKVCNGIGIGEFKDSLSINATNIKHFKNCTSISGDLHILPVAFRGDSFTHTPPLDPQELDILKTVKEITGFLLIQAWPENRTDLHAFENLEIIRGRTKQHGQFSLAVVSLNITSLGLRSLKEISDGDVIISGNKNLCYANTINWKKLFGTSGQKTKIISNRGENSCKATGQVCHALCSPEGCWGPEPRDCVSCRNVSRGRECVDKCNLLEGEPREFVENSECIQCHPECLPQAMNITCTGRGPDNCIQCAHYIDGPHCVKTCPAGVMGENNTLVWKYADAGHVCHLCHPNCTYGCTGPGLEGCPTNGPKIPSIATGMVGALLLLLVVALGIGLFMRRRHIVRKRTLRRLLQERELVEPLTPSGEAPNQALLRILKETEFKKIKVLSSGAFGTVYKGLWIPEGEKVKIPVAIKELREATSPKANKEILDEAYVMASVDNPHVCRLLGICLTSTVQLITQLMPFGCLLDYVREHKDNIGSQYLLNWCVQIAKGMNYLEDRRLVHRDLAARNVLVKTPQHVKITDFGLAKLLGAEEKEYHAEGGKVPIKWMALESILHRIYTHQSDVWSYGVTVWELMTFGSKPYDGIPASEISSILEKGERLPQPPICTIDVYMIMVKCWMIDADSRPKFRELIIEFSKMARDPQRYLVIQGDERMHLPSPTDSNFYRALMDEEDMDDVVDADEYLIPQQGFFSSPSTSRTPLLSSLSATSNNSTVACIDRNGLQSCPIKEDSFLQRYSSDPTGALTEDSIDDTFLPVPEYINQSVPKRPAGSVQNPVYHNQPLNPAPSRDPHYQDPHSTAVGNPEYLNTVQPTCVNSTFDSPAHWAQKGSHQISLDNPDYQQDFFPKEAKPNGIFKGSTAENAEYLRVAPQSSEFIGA
Experiment [9] relates to Epidermal growth factor receptor (Homo sapiens), P00533 [L858R]. The experiment is described as §1.
Experiment [10] has as its system Epidermal growth factor receptor (Homo sapiens), P00533 [T790M]. The description is as §1.
Experiment [11] concerns the target Tyrosine-protein kinase Lyn (Homo sapiens, UniProt P07948).
Experiment [12] has as its target Dual specificity tyrosine-phosphorylation-regulated kinase 1A (Homo sapiens, UniProt Q13627). Put plainly: Selectivity interaction (KinomeScan (DiscoverX)) EUB0001049a DYRK1A. Conditions: at 1 µM.
For experiment [13], the target named is Serine/threonine-protein kinase pim-2 (Homo sapiens, UniProt Q9P1W9). Kind of experiment: Selectivity interaction (KinomeScan (DiscoverX)) EUB0000092b PIM2. Conditions: at 10 µM.

Epidermal growth factor receptor (Homo sapiens), P00533 [T790M], sequence (P00533 whole entry T790M): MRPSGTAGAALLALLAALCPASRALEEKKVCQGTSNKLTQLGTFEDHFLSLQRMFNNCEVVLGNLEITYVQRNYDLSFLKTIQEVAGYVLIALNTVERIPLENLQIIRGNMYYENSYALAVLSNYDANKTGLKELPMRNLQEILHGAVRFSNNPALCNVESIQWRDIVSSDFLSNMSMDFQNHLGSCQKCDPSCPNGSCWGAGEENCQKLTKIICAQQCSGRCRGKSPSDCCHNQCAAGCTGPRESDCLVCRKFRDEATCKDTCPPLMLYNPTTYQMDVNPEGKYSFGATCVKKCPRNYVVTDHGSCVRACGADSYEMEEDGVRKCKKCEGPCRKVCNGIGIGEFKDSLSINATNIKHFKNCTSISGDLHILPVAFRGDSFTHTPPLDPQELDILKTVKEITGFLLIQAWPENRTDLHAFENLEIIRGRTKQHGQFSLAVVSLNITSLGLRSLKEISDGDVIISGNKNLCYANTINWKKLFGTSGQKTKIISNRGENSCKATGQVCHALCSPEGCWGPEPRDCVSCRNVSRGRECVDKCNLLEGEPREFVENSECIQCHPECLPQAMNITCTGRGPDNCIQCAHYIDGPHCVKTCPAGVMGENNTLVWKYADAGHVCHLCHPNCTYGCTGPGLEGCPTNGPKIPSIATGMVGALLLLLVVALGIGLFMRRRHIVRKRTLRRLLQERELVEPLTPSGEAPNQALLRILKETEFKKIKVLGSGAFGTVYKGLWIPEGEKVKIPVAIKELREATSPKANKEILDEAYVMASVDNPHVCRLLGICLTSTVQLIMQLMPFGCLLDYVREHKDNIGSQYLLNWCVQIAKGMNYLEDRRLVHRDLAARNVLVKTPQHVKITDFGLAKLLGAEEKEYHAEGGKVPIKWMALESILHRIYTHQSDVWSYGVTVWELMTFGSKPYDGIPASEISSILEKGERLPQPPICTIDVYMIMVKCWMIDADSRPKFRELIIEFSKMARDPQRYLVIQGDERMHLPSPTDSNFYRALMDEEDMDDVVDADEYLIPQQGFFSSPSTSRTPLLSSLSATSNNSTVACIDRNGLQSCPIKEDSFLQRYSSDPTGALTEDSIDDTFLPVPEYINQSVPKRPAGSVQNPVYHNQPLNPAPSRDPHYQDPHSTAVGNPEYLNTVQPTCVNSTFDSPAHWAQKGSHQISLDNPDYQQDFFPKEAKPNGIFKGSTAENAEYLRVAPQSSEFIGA

In the case of `COCCN1CCC(c2cc(CN(C)C(=O)c3cccc(Oc4ccccc4)c3)ccn2)CC1`, the values for the % activity in [1] (at 1 µM) and in experiment [1] (at 10 µM) were 90% and over 90%, respectively.
`COCC(=O)NC/C=C/c1ccc2ncnc(Nc3ccc(Oc4ccc(C)nc4)c(C)c3)c2c1` [CP-724714]: the % of control in experiment [2] came to 62%.
The molecule `Cc1cc(F)c(C(=O)Nc2cccc(-c3nncn3C(C)C)n2)cc1-n1cnc(C2CC2)c1` yielded a % of control in [3] of 97%.
`CC[C@@H]1[C@H](F)C(=O)N[C@@H]1COc1nccc2cc(C(N)=O)c(OC)cc12` [ZIMLOVISERTIB]: in experiment [4], the % of inhibition was -22.9%.
For `C=CC(=O)Nc1cccc(C(=O)Nc2ccc(Nc3cc(-c4[nH]c(SC)nc4C)ccn3)cc2)c1`, the % of control stood at 96% in [5] (at 1 µM); 96% in experiment [5] (at 5 µM); 108% in experiment [6] (at 1 µM); 101% in experiment [6] (at 5 µM); 96% in experiment [7] (at 1 µM); 75% in experiment [7] (at 5 µM). For the same molecule, the % of control came out at 88% in [8] (at 1 µM); 97% in experiment [8] (at 5 µM); 95% in [9] (at 1 µM); 83% in experiment [9] (at 5 µM); 91% in [10] (at 1 µM); 84% in experiment [10] (at 5 µM).
In [11], `CCc1cccc(CC)c1NC(=O)c1nn(C)c2c1CCc1cnc(Nc3ccc(C(=O)NC4CCN(C)CC4)cc3OC(F)(F)F)nc1-2` yielded an IC50 of over 10 µM.
Turning to `COc1cc(Nc2nc(C)cc(-c3cnn4nc(OC)ccc34)n2)cc(C(F)(F)F)c1`, the % of control in [12] was determined as 74%.
`CCC(=O)N1CCN(c2ccc(-n3c(=O)ccc4cnc5ccc(-c6cnc7ccccc7c6)cc5c43)cc2C(F)(F)F)CC1` yielded a % of control in experiment [13] of 62%.
